Patent publication US20220193013A1, “Pharmaceutical Composition for Treatment or Prevention of Multiple Inflammatory Disorders” (priority 2020, published 2022)

What was measured:
[1] = test system: leptin-deficient (ob/ob) mice; test: body weight study of denatonium acetate in leptin-deficient (ob/ob) mice fed with high-fat diet, 28 days; assay type: in vivo, mouse; conditions: vs vehicle
Method: This example describes an in vivo study of denatonium acetate on body weight in leptin-deficient (ob/ob) mice. Adult leptin-deficient mice (homozygote, ob/ob mice) fed with high-fat diet. There was a vehicle control group (15 mice) that were treated with distilled water by gavage BID. The DA group (15 mice) were treated with a DA solution at a dose of 23.1 mg/kg BID. Body weights and body weight changes were determined at days 1, 3, 7, 10, 14, 21, 24 and 28. Food intake was determined on days 3, 7, 10, 14, 17, 21, […] and 28. On day 28 blood samples were taken for cytokine analysis, HbA1c, HDL, LDL, insulin, and bile acids. Statistics were done by two-way repeated measures ANOVA followed by Tukey's multiple comparison post hoc test.

[2] = test system: mouse peritoneum macrophages; test: LPS-stimulated mouse peritoneal macrophages, cytokine analysis; assay type: cell-based; conditions: for GM-CSF, Significance @ 12 hour LPS incubation / IFNγ, Significance @ 12 hour LPS incubation / IL-1α, Significance @ 12 hour LPS incubation / IL-1β, Significance @ 12 hour LPS incubation / IL-2, Significance @ 12 hour LPS incubation / IL-4, Significance @ 12 hour LPS incubation / IL-6, Significance @ 12 hour LPS incubation / IL-7, Significance @ 12 hour LPS incubation / IL-10, Significance @ 12 hour LPS incubation / IL-12 (p70), Significance @ 12 hour LPS incubation / IL-13, Significance @ 12 hour LPS incubation / IL-17A, Significance @ 12 hour LPS incubation / KC/CXCL1, Significance @ 12 hour LPS incubation / LIX, Significance @ 12 hour LPS incubation / MCP-1, Significance @ 12 hour LPS incubation / MIP-2, Significance @ 12 hour LPS incubation / TNF-α, Significance @ 12 hour LPS incubation: P value
Method: This example provides an […] study to determine the effect of DA on mouse peritoneum macrophages. Peritoneal exudates were obtained from Balb/c female mice by lavage 4 days after an intraperitoneal injection of 4 ml sterile 4% thioglycollate broth. After washing with RPMI 1640 medium, the cell suspensions were centrifuged at 800 g at 4° C. for 5 min. The red blood cells were eliminated by ACK buffer and the cells were washed and resuspended in RPMI 1640 supplemented with 10% inactivated FBS, 10 mM HEPES, 2 mM glutamine, and 100 U/ml penicillin-[…] streptomycin. The peritoneal macrophages were plated in 24 well tissue culture plate (2×10^5 cells/mL/well) at 37° C. in a 5% CO2 humidified atmosphere. Macrophages were precultured in serum-free RPMI 1640 medium for 24 h to reduce mitogenic effects. Macrophages were pretreated with various concentrations of DA for 1 h prior to LPS treatment and stimulated with LPS (100 ng/mL) for 24 h. Treatment groups were: Table 4 At 12 and 24 h time points of stimulation, ˜200 ul of supernatant were removed and stored (−80° C.) for cytokine analysis ([…]). Cytokines analyzed were—GM-CSF, IFNγ, IL-1a, IL-1β, IL-2, IL-4, IL-5, IL-6, IL-7, IL-10, IL-12 (p70), IL-13, IL-17A, KC/CXCL1, LIX, MCP-1, MIP-2, TNF-α,

[3] = 23.1 mg/kg BID, pre-dose to day 28, not statistically significant

CC(=O)[O-].CC[N+](CC)(CC(=O)Nc1c(C)cccc1C)Cc1ccccc1 [DA, denatonium acetate]
average daily average individual food intake ([1]; 23.1 mg/kg BID gavage, 28 days): no difference | GM-CSF in blood ([1]; 23.1 mg/kg BID gavage, day 28): significant decreases | IFNγ in blood ([1]; 23.1 mg/kg BID gavage, day 28): significant decreases | IL-5 in blood ([1]; 23.1 mg/kg BID gavage, day 28): significant decreases | IL-10 in blood ([1]; 23.1 mg/kg BID gavage, day 28): significant decreases | IL-12 in blood ([1]; 23.1 mg/kg BID gavage, day 28): significant decreases | KC/CXCL1 in blood ([1]; 23.1 mg/kg BID gavage, day 28): significant decreases | M-CSF in blood ([1]; 23.1 mg/kg BID gavage, day 28): significant decreases | blood HDL level ([1]; 23.1 mg/kg BID gavage, day 28): statistically significant decrease | blood HbA1c levels ([1]; 23.1 mg/kg BID gavage, day 28): no statistically significant difference | blood LDL levels ([1]; 23.1 mg/kg BID gavage, day 28): no statistically significant difference | blood bile acid levels ([1]; 23.1 mg/kg BID gavage, day 28): no statistically significant difference | blood insulin levels ([1]; 23.1 mg/kg BID gavage, day 28): no statistically significant difference | blood total cholesterol levels (LDL plus HDL) ([1]; 23.1 mg/kg BID gavage, day 28): almost significant decrease | fasting blood glucose level ([1]; 23.1 mg/kg BID gavage, day 28): no statistically significant difference | body weight change ([1]; 23.1 mg/kg BID gavage, days 1-28, P=0.105): no significant main effect | body weight change at day 28 ([1]; 23.1 mg/kg BID gavage): no statistically significant difference | cumulative food consumption over 28 days ([1]; 23.1 mg/kg BID gavage): no statistically significant difference | change in granulocyte number [1, 3]: trend of increasing change | change in lymphocyte and white blood cell numbers and percentage [1, 3]: trend of increasing change | change in monocyte number and percentage [1, 3]: trend of increasing change | GM-CSF, Significance @ 24 hour LPS incubation ([2]; DA 1 μM): No sig | IFNγ, Significance @ 24 hour LPS incubation ([2]; DA 1 μM): No sig | IL-1α, Significance @ 24 hour LPS incubation ([2]; DA 1 μM): No sig | IL-1β, Significance @ 24 hour LPS incubation ([2]; DA 1 μM): No sig | IL-2, Significance @ 24 hour LPS incubation ([2]; DA 1 μM): No sig | IL-4, Significance @ 24 hour LPS incubation ([2]; DA 1 μM): No sig | IL-6, Significance @ 24 hour LPS incubation ([2]; DA 1 μM): No sig | IL-7, Significance @ 24 hour LPS incubation ([2]; DA 1 μM): No sig | IL-10, Significance @ 24 hour LPS incubation ([2]; DA 1 μM): No sig | IL-12 (p70), Significance @ 24 hour LPS incubation ([2]; DA 1 μM): No sig | IL-13, Significance @ 24 hour LPS incubation ([2]; DA 1 μM): No sig | IL-17A, Significance @ 24 hour LPS incubation ([2]; DA 1 μM): No sig | KC/CXCL1, Significance @ 24 hour LPS incubation ([2]; DA 1 μM): No sig | LIX, Significance @ 24 hour LPS incubation ([2]; DA 1 μM): No sig | MCP-1, Significance @ 24 hour LPS incubation ([2]; DA 1 μM): No sig | MIP-2, Significance @ 24 hour LPS incubation ([2]; DA 1 μM): No sig | TNF-α, Significance @ 24 hour LPS incubation ([2]; DA 1 μM): No sig | GM-CSF, Significance @ 12 hour LPS incubation ([2]; DA 1 μM): 0.029 | IFNγ, Significance @ 12 hour LPS incubation ([2]; DA 1 μM): 0.031 | IL-1α, Significance @ 12 hour LPS incubation ([2]; DA 1 μM): 0.021 | IL-1β, Significance @ 12 hour LPS incubation ([2]; DA 1 μM): 0.023 | IL-2, Significance @ 12 hour LPS incubation ([2]; DA 1 μM): 0.005 | IL-4, Significance @ 12 hour LPS incubation ([2]; DA 1 μM): 0.009 | IL-6, Significance @ 12 hour LPS incubation ([2]; DA 1 μM): 0.096 | IL-7, Significance @ 12 hour LPS incubation ([2]; DA 1 μM): 0.024 | IL-10, Significance @ 12 hour LPS incubation ([2]; DA 1 μM): 0.045 | IL-12 (p70), Significance @ 12 hour LPS incubation ([2]; DA 1 μM): 0.017 | IL-13, Significance @ 12 hour LPS incubation ([2]; DA 1 μM): 0.038 | IL-17A, Significance @ 12 hour LPS incubation ([2]; DA 1 μM): 0.044 | KC/CXCL1, Significance @ 12 hour LPS incubation ([2]; DA 1 μM): No sig | LIX, Significance @ 12 hour LPS incubation ([2]; DA 1 μM): No sig | MCP-1, Significance @ 12 hour LPS incubation ([2]; DA 1 μM): No sig | MIP-2, Significance @ 12 hour LPS incubation ([2]; DA 1 μM): 0.081 | TNF-α, Significance @ 12 hour LPS incubation ([2]; DA 1 μM): 0.059 | GM-CSF, Significance @ 24 hour LPS incubation ([2]; DA 10 μM): no sig | IFNγ, Significance @ 24 hour LPS incubation ([2]; DA 10 μM): no sig | IL-1α, Significance @ 24 hour LPS incubation ([2]; DA 10 μM): no sig | IL-1β, Significance @ 24 hour LPS incubation ([2]; DA 10 μM): no sig | IL-2, Significance @ 24 hour LPS incubation ([2]; DA 10 μM): no sig | IL-4, Significance @ 24 hour LPS incubation ([2]; DA 10 μM): no sig | IL-6, Significance @ 24 hour LPS incubation ([2]; DA 10 μM): no sig | IL-7, Significance @ 24 hour LPS incubation ([2]; DA 10 μM): no sig | IL-10, Significance @ 24 hour LPS incubation ([2]; DA 10 μM): no sig | IL-12 (p70), Significance @ 24 hour LPS incubation ([2]; DA 10 μM): no sig | IL-13, Significance @ 24 hour LPS incubation ([2]; DA 10 μM): no sig | IL-17A, Significance @ 24 hour LPS incubation ([2]; DA 10 μM): no sig | KC/CXCL1, Significance @ 24 hour LPS incubation ([2]; DA 10 μM): no sig | LIX, Significance @ 24 hour LPS incubation ([2]; DA 10 μM): no sig | MCP-1, Significance @ 24 hour LPS incubation ([2]; DA 10 μM): no sig | MIP-2, Significance @ 24 hour LPS incubation ([2]; DA 10 μM): no sig | TNF-α, Significance @ 24 hour LPS incubation ([2]; DA 10 μM): no sig | GM-CSF, Significance @ 12 hour LPS incubation ([2]; DA 10 μM): no sig | IFNγ, Significance @ 12 hour LPS incubation ([2]; DA 10 μM): 0.037 | IL-1α, Significance @ 12 hour LPS incubation ([2]; DA 10 μM): 0.036 | IL-1β, Significance @ 12 hour LPS incubation ([2]; DA 10 μM): 0.023 | IL-2, Significance @ 12 hour LPS incubation ([2]; DA 10 μM): 0.004 | IL-4, Significance @ 12 hour LPS incubation ([2]; DA 10 μM): 0.009 | IL-6, Significance @ 12 hour LPS incubation ([2]; DA 10 μM): 0.029 | IL-7, Significance @ 12 hour LPS incubation ([2]; DA 10 μM): 0.010 | IL-10, Significance @ 12 hour LPS incubation ([2]; DA 10 μM): 0.026 | IL-12 (p70), Significance @ 12 hour LPS incubation ([2]; DA 10 μM): 0.007 | IL-13, Significance @ 12 hour LPS incubation ([2]; DA 10 μM): 0.019 | IL-17A, Significance @ 12 hour LPS incubation ([2]; DA 10 μM): 0.024 | KC/CXCL1, Significance @ 12 hour LPS incubation ([2]; DA 10 μM): no sig | LIX, Significance @ 12 hour LPS incubation ([2]; DA 10 μM): no sig | MCP-1, Significance @ 12 hour LPS incubation ([2]; DA 10 μM): no sig | MIP-2, Significance @ 12 hour LPS incubation ([2]; DA 10 μM): 0.021 | TNF-α, Significance @ 12 hour LPS incubation ([2]; DA 10 μM): 0.024 | GM-CSF, Significance @ 24 hour LPS incubation ([2]; DA 100 μM): no sig | IFNγ, Significance @ 24 hour LPS incubation ([2]; DA 100 μM): no sig | IL-1α, Significance @ 24 hour LPS incubation ([2]; DA 100 μM): no sig | IL-1β, Significance @ 24 hour LPS incubation ([2]; DA 100 μM): no sig | IL-2, Significance @ 24 hour LPS incubation ([2]; DA 100 μM): no sig | IL-4, Significance @ 24 hour LPS incubation ([2]; DA 100 μM): no sig | IL-6, Significance @ 24 hour LPS incubation ([2]; DA 100 μM): no sig | IL-7, Significance @ 24 hour LPS incubation ([2]; DA 100 μM): no sig | IL-10, Significance @ 24 hour LPS incubation ([2]; DA 100 μM): no sig | IL-12 (p70), Significance @ 24 hour LPS incubation ([2]; DA 100 μM): no sig | IL-13, Significance @ 24 hour LPS incubation ([2]; DA 100 μM): no sig | IL-17A, Significance @ 24 hour LPS incubation ([2]; DA 100 μM): no sig | KC/CXCL1, Significance @ 24 hour LPS incubation ([2]; DA 100 μM): no sig | LIX, Significance @ 24 hour LPS incubation ([2]; DA 100 μM): no sig | MCP-1, Significance @ 24 hour LPS incubation ([2]; DA 100 μM): no sig | MIP-2, Significance @ 24 hour LPS incubation ([2]; DA 100 μM): no sig | TNF-α, Significance @ 24 hour LPS incubation ([2]; DA 100 μM): no sig | GM-CSF, Significance @ 12 hour LPS incubation ([2]; DA 100 μM): no sig | IL-10, Significance @ 12 hour LPS incubation ([2]; DA 100 μM): 0.015 | IL-12 (p70), Significance @ 12 hour LPS incubation ([2]; DA 100 μM): 0.008 | IL-13, Significance @ 12 hour LPS incubation ([2]; DA 100 μM): 0.021 | IL-17A, Significance @ 12 hour LPS incubation ([2]; DA 100 μM): 0.042 | KC/CXCL1, Significance @ 12 hour LPS incubation ([2]; DA 100 μM): 0.022 | LIX, Significance @ 12 hour LPS incubation ([2]; DA 100 μM): no sig | MCP-1, Significance @ 12 hour LPS incubation ([2]; DA 100 μM): no sig | MIP-2, Significance @ 12 hour LPS incubation ([2]; DA 100 μM): 0.033 | TNF-α, Significance @ 12 hour LPS incubation ([2]; DA 100 μM): 0.033
